# Measurements: US4728732A, “C-3'acylsulfonamido cephalosporin analogs” (American Home Products Corporation, priority 1985, dated 1988)
# Key:
# Type in all cases: cell-based
# [1] = system: Enterobacter cloacae ATCC 13047; assay: MIC, procedure A (two-fold dilutions in broth, Microtiter plate); conditions: ATCC13047
# Experimental: (§1) The compounds of the invention are tested for their antibacterial activity. The test can be carried out in two ways:
# (§2) A. The organisms used in the test comprise the following:
# (§3) Staphylococcus aureus (penicillin-sensitive and resistant), Pseudomonas aeruginosa, Escherichia coli, […] pneumoniae, Bordetella bronchiseptica, Proteus vulgaris, P. mirabilis, Acinetobacter calcoaceticus.
# (§4) Test organisms may be added or deleted in order to reflect current clinical patterns of antibiotic susceptibility or shifts in pathogenic potential.
# (§5) Stock solution of appropriate medium (e.g. Mueller-Hinton Broth) is sterilized. Starting at a predetermined concentration (e.g. 250 μg/ml), two-fold dilutions are made with the Dynatech Automatic Diluter in a Microtiter plate of 8 rows of 12 wells each in which 11 wells in each row contain 50 μl of medium (e.g. Mueller-Hinton Broth) and the 12th well contains in 100 μl an aliquot of the compound to be tested. The diluted plates are inoculated using the Dynatech Automatic Inoculator which delivers the final inoculum (e.g. 10^5 cfu/ml of a seven-hour culture which has been incubated at 35° C.).
# (§6) Plates are sealed with tape and incubated (e.g. 18 hours at 35° C.).
# [2] = system: Escherichia coli ATCC 25922; assay: as above; conditions: ATCC25922
# Experimental: as §1, §2, §3, §4, §5, §6
# [3] = system: Klebsiella pneunomiae KL-1; assay: as above; conditions: KL1
# Experimental: as §1, §2, §3, §4, §5, §6
# [4] = system: Proteus vulgaris A 84354 1; assay: as above; conditions: A843541
# Experimental: as §1, §2, §3, §4, §5, §6
# [5] = system: Pseudomonas aeruginosa ATCC 27853; assay: as above; conditions: ATCC27853
# Experimental: as §1, §2, §3, §4, §5, §6
# [6] = system: Serratia marcescens ATCC 13880; assay: as above; conditions: ATCC13880
# Experimental: as §1, §2, §3, §4, §5, §6
# [7] = system: Staphylococcus aureus ATCC 29213; assay: as above; conditions: ATCC29213
# Experimental: as §1, §2, §3, §4, §5, §6
# [8] = system: Streptococcus faecalis ATCC 29212; assay: as above; conditions: Enterococcus faecalis, ATCC29212
# Experimental: as §1, §2, §3, §4, §5, §6
# [9] = system: Enterobacter cloacae ATCC 13047; assay: MIC, procedure B (agar, Steers replicating device); conditions: ATCC13047
# Experimental: as §1
# (§7) B. The organisms used in the test comprise the following:
# as §3, §4
# (§8) Organisms are normally grown for 18 hours in Brain Heart Infusion at 35° C. Cultures are adjusted with saline to MacFarland No. 1.5 standard prior to use.
# (§9) Stock concentrations (e.g […] or units per ml) are prepared in a suitable vehicle. Two-fold dilutions are made. One ml quantities of each dilution are incorporated in 9 ml of the appropriate agar (e.g. Seed) in sterile Petri plates. The hardened surface is inoculated with test organisms by use of a Steers replicating device. The plates are incubated (e.g. 18 hours at 35° C.) and activity is determined.
# [10] = system: Escherichia coli ATCC 25922; assay: MIC, procedure B (agar, Steers replicating device); conditions: ATCC25922
# Experimental: as §1, §7, §3, §4, §8, §9
# [11] = system: Klebsiella pneunomiae KL-1; assay: MIC, procedure B (agar, Steers replicating device); conditions: KL1
# Experimental: as §1, §7, §3, §4, §8, §9
# [12] = system: Proteus vulgaris A 84354 1; assay: MIC, procedure B (agar, Steers replicating device); conditions: A843541
# Experimental: as §1, §7, §3, §4, §8, §9
# [13] = system: Pseudomonas aeruginosa ATCC 27853; assay: MIC, procedure B (agar, Steers replicating device); conditions: ATCC27853
# Experimental: as §1, §7, §3, §4, §8, §9
# [14] = system: Serratia marcescens ATCC 13880; assay: MIC, procedure B (agar, Steers replicating device); conditions: ATCC13880
# Experimental: as §1, §7, §3, §4, §8, §9
# [15] = system: Staphylococcus aureus ATCC 29213; assay: MIC, procedure B (agar, Steers replicating device); conditions: ATCC29213
# Experimental: as §1, §7, §3, §4, §8, §9
# [16] = system: Streptococcus faecalis ATCC 29212; assay: MIC, procedure B (agar, Steers replicating device); conditions: Enterococcus faecalis, ATCC29212
# Experimental: as §1, §7, §3, §4, §8, §9
MIC [1] [µg/mL],MIC [2] [µg/mL],MIC [3] [µg/mL],MIC [4] [µg/mL],MIC [5] [µg/mL],MIC [6] [µg/mL],MIC [7] [µg/mL],MIC [8] [µg/mL],MIC [9] [µg/mL],MIC [10] [µg/mL],MIC [11] [µg/mL],MIC [12] [µg/mL],MIC [13] [µg/mL],MIC [14] [µg/mL],MIC [15] [µg/mL],MIC [16] [µg/mL],Compound
64,8,4,4,128,32,32,256,,,,,,,,,CO/N=C(\C(=O)N[C@@H]1C(=O)N2C(C(=O)OC(C)(C)C)=C(CN3C(=O)c4cscc4S3(=O)=O)CS[C@H]12)c1csc(N)n1 [1 B.]
,,,,,,,,4,2,1,0.5,64,2,4,8,CO/N=C(\C(=O)N[C@@H]1C(=O)N2C(C(=O)O)=C(CN3C(=O)c4cscc4S3(=O)=O)CS[C@H]12)c1csc(N)n1 [1 C.]
16,2,1,1,64,8,8,16,,,,,,,,,CO/N=C(\C(=O)N[C@@H]1C(=O)N2C(C(=O)OC(C)(C)C)=C(CN3C(=O)c4ccccc4S3(=O)=O)CS[C@H]12)c1csc(N)n1 [2 B.]
,,,,,,,,8,1,0.5,0.5,32,4,4,8,CO/N=C(\C(=O)N[C@@H]1C(=O)N2C(C(=O)O)=C(CN3C(=O)c4ccccc4S3(=O)=O)CS[C@H]12)c1csc(N)n1 [2 C.]
128,4,2,8,256,8,128,256,,,,,,,,,CO/N=C(\C(=O)N[C@@H]1C(=O)N2C(C(=O)OC(C)(C)C)=C(CN3C(=O)c4cccnc4S3(=O)=O)CS[C@H]12)c1csc(N)n1 [3 B.]
,,,,,,,,16,2,1,2,128,2,32,128,CO/N=C(\C(=O)N[C@@H]1C(=O)N2C(C(=O)O)=C(CN3C(=O)c4cccnc4S3(=O)=O)CS[C@H]12)c1csc(N)n1 [3 C.]
